ChEMBL document CHEMBL1149774, “Synthesis of N-(5,7-diamino-3-phenyl-quinoxalin-2-yl)-3,4,5-substituted anilines and N-[4[(5,7-diamino-3-phenylquinoxalin-2-yl)amino]benzoyl]-l-glutamic acid diethyl ester: evaluation of in vitro anti-cancer and anti-folate activities” (Eur J Med Chem, 2008)

Key:
[1] = tested on: SW-620; experiment: Growth inhibition of human SW620 cells after 48 hrs by SRB staining method; type: functional; conditions: SW-620, 48 h
[2] = tested on: NCI-H322M; experiment: Growth inhibition of human NCI-H322M cells after 48 hrs by SRB staining method; type: functional
[3] = tested on: HOP-62; experiment: Growth inhibition of human HOP62 cells after 48 hrs by SRB staining method; type: functional; conditions: HOP-62, 48 h
[4] = tested on: SK-MEL-28; experiment: Growth inhibition of human SK-MEL-28 cells after 48 hrs by SRB staining method; type: functional; conditions: SK-MEL-28, 48 h
[5] = molecular target: T1, Dihydrofolate reductase (Homo sapiens, UniProt P00374); experiment: Inhibition of human dihydrofolate reductase
T1 sequence (P00374 whole entry): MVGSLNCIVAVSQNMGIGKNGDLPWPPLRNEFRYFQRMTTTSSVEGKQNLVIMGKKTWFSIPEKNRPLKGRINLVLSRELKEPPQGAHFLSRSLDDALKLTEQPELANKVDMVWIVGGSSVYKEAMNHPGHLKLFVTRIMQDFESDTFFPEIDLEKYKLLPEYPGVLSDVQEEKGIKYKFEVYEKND

[6] = tested on: RPMI-8226; experiment: Growth inhibition of human RPMI8226 cells after 48 hrs by SRB staining method; type: functional; conditions: RPMI-8226, 48 h
[7] = tested on: SN12C; experiment: Growth inhibition of human SN12C cells after 48 hrs by SRB staining method; type: functional
[8] = tested on: HOP-92; experiment: Growth inhibition of human HOP92 cells after 48 hrs by SRB staining method; type: functional; conditions: HOP-92, 48 h
[9] = tested on: KM12; experiment: Growth inhibition of human KM12 cells after 48 hrs by SRB staining method; type: functional; conditions: KM12, 48 h
[10] = tested on: MDA-MB-435; experiment: Growth inhibition of human MDA-MB-435 cells after 48 hrs by SRB staining method; type: functional; conditions: MDA-MB-435, 48 h
[11] = tested on: EKVX; experiment: Growth inhibition of human EKVX cells after 48 hrs by SRB staining method; type: functional
[12] = tested on: SK-MEL-5; experiment: Growth inhibition of human SK-MEL-5 cells after 48 hrs by SRB staining method; type: functional; conditions: SK-MEL-5, 48 h
[13] = tested on: MDA-N; experiment: Growth inhibition of human MDA-N cells after 48 hrs by SRB staining method; type: functional
[14] = tested on: HCC 2998; experiment: Growth inhibition of human HCC2998 cells after 48 hrs by SRB staining method; type: functional; conditions: HCC 2998, 48 h
[15] = tested on: OVCAR-4; experiment: Growth inhibition of human OVCAR4 cells after 48 hrs by SRB staining method; type: functional; conditions: OVCAR-4, 48 h
[16] = tested on: HCT-116; experiment: Growth inhibition of human HCT116 cells after 48 hrs by SRB staining method; type: functional; conditions: HCT-116, 48 h
[17] = molecular target: Thymidylate synthase (Homo sapiens, UniProt P04818)
Thymidylate synthase, sequence (P04818 whole entry): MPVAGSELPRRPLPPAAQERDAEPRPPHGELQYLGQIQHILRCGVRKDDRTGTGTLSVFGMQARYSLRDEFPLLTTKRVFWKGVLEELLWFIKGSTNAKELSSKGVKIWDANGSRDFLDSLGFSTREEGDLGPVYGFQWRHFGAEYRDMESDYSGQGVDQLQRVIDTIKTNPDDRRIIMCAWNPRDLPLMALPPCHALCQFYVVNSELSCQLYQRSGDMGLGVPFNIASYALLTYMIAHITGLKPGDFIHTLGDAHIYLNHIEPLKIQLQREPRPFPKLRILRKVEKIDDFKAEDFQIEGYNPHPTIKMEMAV
Description: Inhibition of human thymidylate synthase

[18] = tested on: CCRF-CEM; experiment: Growth inhibition of human CCRF-CEM cells after 48 hrs by SRB staining method; type: functional
[19] = tested on: NCI-H522; experiment: Growth inhibition of human NCI-H522 cells after 48 hrs by SRB staining method; type: functional; conditions: NCI-H522, 48 h
[20] = tested on: OVCAR-3; experiment: Growth inhibition of human OVCAR-3 cells after 48 hrs by SRB staining method; type: functional; conditions: OVCAR-3, 48 h
[21] = tested on: HT-29; experiment: Growth inhibition of human HT29 cells after 48 hrs by SRB staining method; type: functional; conditions: HT-29, 48 h
[22] = tested on: M14; experiment: Growth inhibition of human M14 cells after 48 hrs by SRB staining method; type: functional; conditions: M14, 48 h
[23] = tested on: A549; experiment: Growth inhibition of human A549 cells after 48 hrs by SRB staining method; type: functional; conditions: A549, 48 h
[24] = tested on: LOX IMVI; experiment: Growth inhibition of human LOX IMVI cells after 48 hrs by SRB staining method; type: functional
[25] = tested on: TK-10; experiment: Growth inhibition of human TK10 cells after 48 hrs by SRB staining method; type: functional; conditions: TK-10, 48 h
[26] = tested on: SNB-75; experiment: Growth inhibition of human SNB75 cells after 48 hrs by SRB staining method; type: functional; conditions: SNB-75, 48 h
[27] = Growth inhibition of human HS 578T cells after 48 hrs by SRB staining method; type: functional
[28] = read-out: pLC50 (the source's name) (converted)

SMILES: COc1cc(Nc2nc3cc(N)cc(N)c3nc2-c2ccccc2)cc(OC)c1
- GI50 [1]: 26.9 µM
- CC50 [1, 28]: > 100 µM
- TGI ([1]; read-out: pTGI (converted)): > 100 µM
- GI50 [2]: 13.8 µM
- LC50 [2]: > 100 µM
- TGI ([2]; read-out: pTGI (converted)): 58.9 µM
- GI50 [3]: 19.5 µM
- LC50 [3]: > 100 µM
- TGI ([3]; read-out: pTGI (converted)): 53.7 µM
- GI50 [4]: 14.8 µM
- CC50 [4, 28]: > 100 µM
- TGI ([4]; read-out: pTGI (converted)): 89.1 µM
- Ki [5]: 0.6 µM
- GI50 [6]: 1.26 µM
- CC50 [6, 28]: 32.4 µM
- TGI ([6]; read-out: pTGI (converted)): 10.5 µM
- GI50 [7]: 8.71 µM
- CC50 [7, 28]: > 100 µM
- TGI ([7]; read-out: pTGI (converted)): > 100 µM
- LC50 [8]: > 100 µM
- GI50 [9]: 13.2 µM
- LC50 [9]: 72.4 µM
- TGI ([9]; read-out: pTGI (converted)): 30.9 µM
- GI50 [10]: 11.5 µM
- CC50 [10, 28]: 49 µM
- TGI ([10]; read-out: pTGI (converted)): 24 µM
- GI50 [11]: 13.2 µM
- CC50 [11, 28]: > 100 µM
- TGI ([11]; read-out: pTGI (converted)): 64.6 µM
- GI50 [12]: 10.5 µM
- LC50 [12]: 87.1 µM
- TGI ([12]; read-out: pTGI (converted)): 30.2 µM
- GI50 [13]: 12.9 µM
- CC50 [13, 28]: 100 µM
- TGI ([13]; read-out: pTGI (converted)): 36.3 µM
- GI50 [14]: 24.5 µM
- LC50 [14]: > 100 µM
- TGI ([14]; read-out: pTGI (converted)): > 100 µM
- GI50 [15]: 17.8 µM
- LC50 [15]: > 100 µM
- TGI ([15]; read-out: pTGI (converted)): > 100 µM
- GI50 [16]: 17 µM
- LC50 [16]: > 100 µM
- TGI ([16]; read-out: pTGI (converted)): 53.7 µM
- Ki [17]: 25 µM
- GI50 [18]: < 0.01 µM
- CC50 [18, 28]: 0.977 µM
- TGI ([18]; read-out: pTGI (converted)): 0.166 µM
- GI50 [19]: 9.55 µM
- LC50 [19]: 85.1 µM
- TGI ([19]; read-out: pTGI (converted)): 28.8 µM
- GI50 [20]: 3.89 µM
- LC50 [20]: 100 µM
- TGI ([20]; read-out: pTGI (converted)): 20 µM
- GI50 [21]: 27.5 µM
- LC50 [21]: > 100 µM
- TGI ([21]; read-out: pTGI (converted)): > 100 µM
- GI50 [22]: 14.1 µM
- LC50 [22]: 85.1 µM
- TGI ([22]; read-out: pTGI (converted)): 34.7 µM
- GI50 [23]: 20 µM
- CC50 [23, 28]: > 100 µM
- TGI ([23]; read-out: pTGI (converted)): > 100 µM
- GI50 [24]: 15.1 µM
- LC50 [24]: > 100 µM
- TGI ([24]; read-out: pTGI (converted)): 50.1 µM
- GI50 [25]: 13.2 µM
- CC50 [25, 28]: > 100 µM
- TGI ([25]; read-out: pTGI (converted)): 42.7 µM
- GI50 [26]: 3.72 µM
- LC50 [26]: > 100 µM
- TGI ([26]; read-out: pTGI (converted)): 44.7 µM
- GI50 [27]: 11 µM
- CC50 [27, 28]: > 100 µM
- TGI ([27]; read-out: pTGI (converted)): 63.1 µM
